Data as given in patent publication US20230089247A1, “NOVEL COMPOUNDS SUITABLE FOR THE TREATMENT OF DYSLIPIDEMIA” (ZYDUS LIFESCIENCES LIMITED, priority 2019, published 2023).

Biological target: PCSK9 (Homo sapiens, UniProt Q8NBP7)
Assay: BODIPY-LDL uptake assay in HepG2 cells
Type: cell-based
Settings: 5 μg/ml PCSK9, BODIPY-LDL
Description: BODIPY-LDL Uptake Assay in HepG2 Cells.
An established assay for PCSK9 inhibition features uptake of fluorescently labeled LDL nanoparticles (BODIPY-LDL) by hepatocytes and uptake of the BODIPY-containing particles is maximized in the absence of PCSK9.
In the LDL uptake assay, HepG2 cells were seeded at a density of 6×10^4 cells/well in a 96-well plate. After 24 h, the test compounds at various concentrations were pre-incubated with 5 μg/ml PCSK9 in 0.2% DMSO for 60 min prior to the addition on to the cells. After 16 h the medium was removed and 1 μg/ml BODIPY-LDL (Invitrogen) in serum free media was added and incubated for 5 h. Then the cells were washed twice with 0.25% BSA in PBS. Then the fluorescence of the cells in PBS was measured using TECAN multimode reader (Excitation: 485 nm and Emission: 520 nm). The readings were taken in triplicate and the final values were normalized with the protein concentration from respective wells. The wells without test compound containing external PCSK9 is considered as zero uptake and the one without PCSK9 was considered as 100% uptake. The percentage increase in LDL uptake for the test compounds were calculated using these values.

Sequence of PCSK9 (Q8NBP7 153-692): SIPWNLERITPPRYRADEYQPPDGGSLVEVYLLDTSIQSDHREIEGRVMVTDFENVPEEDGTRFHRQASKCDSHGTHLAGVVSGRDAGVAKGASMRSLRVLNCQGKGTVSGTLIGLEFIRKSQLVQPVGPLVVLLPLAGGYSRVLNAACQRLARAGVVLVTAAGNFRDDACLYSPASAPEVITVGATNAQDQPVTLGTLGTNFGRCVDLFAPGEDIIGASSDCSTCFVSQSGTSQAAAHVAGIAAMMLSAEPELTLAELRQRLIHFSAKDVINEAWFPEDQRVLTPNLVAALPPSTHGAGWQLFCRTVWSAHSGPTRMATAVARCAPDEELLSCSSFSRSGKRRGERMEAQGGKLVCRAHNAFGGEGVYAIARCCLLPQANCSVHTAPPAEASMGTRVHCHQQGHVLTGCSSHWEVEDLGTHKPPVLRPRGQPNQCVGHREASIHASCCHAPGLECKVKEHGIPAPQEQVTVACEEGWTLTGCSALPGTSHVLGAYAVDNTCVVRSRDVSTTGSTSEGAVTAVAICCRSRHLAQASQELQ

Row | SMILES | % increase in LDL Uptake (1 μM test compound) | % increase in LDL Uptake (10 μM test compound) | % increase in LDL Uptake (30 μM test compound)
1 | OC1(c2cc(N3CCOCC3)cc(N3CCC(c4ccc(C(F)(F)F)cc4)CC3)c2)COC1 [Example 84, 3-(3-morpholino-5-(4-(4-(trifluoromethyl)phenyl)piperidin-1-yl)phenyl) oxetan-3-ol] | 6% | 13% | 17%
2 | O=C(c1ccc(C2(O)COC2)cc1)N1Cc2cn(-c3ccc(C(F)(F)F)cc3)nc2C1 [Example 89, (4-(3-hydroxyoxetan-3-yl)phenyl)(2-(4-(trifluoromethyl)phenyl)-2,6-dihydropyrrolo[3,4-c]pyrazol-5(4H)-yl)methanone] | 0% | 5% | 159%
3 | COC1(c2ccc(C(=O)N3CC4CC(OC)(c5ccc(C(F)(F)F)cc5)CC4C3)cc2)COC1 (stereo not drawn) [Example 92, (5-methoxy-5-(4-(trifluoromethyl)phenyl)hexahydrocyclopenta[c]pyrrol-2(1H)-yl)(4-(3-methoxyoxetan-3-yl)phenyl)methanone] | −2% | −8% | 64%
4 | O=C(c1ccc(C2(O)COC2)cc1)N1Cc2cn(-c3ccc(C(F)(F)F)cc3)cc2C1 [Example 93, (4-(3-hydroxyoxetan-3-yl)phenyl)(5-(4-(trifluoromethyl)phenyl)-3,5-dihydropyrrolo[3,4-c]pyrrol-2(1H)-yl)methanone] | 0% | 90% | 144%
5 | O=C(c1cccc(C2(O)COC2)c1)N1CC2=C(C1)CN(c1ccc(C(F)(F)F)cc1)C2 [Example 96, (3-(3-hydroxyoxetan-3-yl)phenyl)(5-(4-(trifluoromethyl)phenyl)-3,4,5,6-tetrahydropyrrolo[3,4-c]pyrrol-2(1H)-yl)methanone] | 0% | 28% | 75%
6 | COC1(c2cccc(C(=O)N3CC4=C(C3)CN(c3ccc(C(F)(F)F)cc3)C4)c2)COC1 [Example 97, (3-(3-methoxyoxetan-3-yl)phenyl)(5-(4-(trifluoromethyl)phenyl)-3,4,5,6-tetrahydropyrrolo[3,4-c]pyrrol-2(1H)-yl)methanone] | 0% | 0% | 24%
7 | O=S(=O)(c1ccc(C2(O)COC2)cc1)N1CC2CN(c3ccc(C(F)(F)F)cc3)CC2C1 (stereo not drawn) [Example 98, 3-(4-((5-(4-(trifluoromethyl)phenyl)hexahydropyrrolo[3,4-c]pyrrol-2(1H)-yl)sulfonyl)phenyl)oxetan-3-ol] | 0% | 124% | 3%
8 | O=C(c1ccc(C2(O)COC2)cc1)N1CCC2(CC1)CCN(c1ccc(C(F)(F)F)cc1)CC2 [Example 99, (4-(3-hydroxyoxetan-3-yl)phenyl)(9-(4-(trifluoromethyl)phenyl)-3,9-diazaspiro[5.5]undecan-3-yl)methanone] | 50% | 0% | 0%
9 | O=C(c1cccc(C2(O)COC2)c1)N1CCC2(CC1)CCN(c1ccc(C(F)(F)F)cc1)CC2 [Example 100, (3-(3-hydroxyoxetan-3-yl)phenyl)(9-(4-(trifluoromethyl)phenyl)-3,9-diazaspiro[5.5]undecan-3-yl)methanone] | 29% | 0% | 0%
10 | O=C(c1ccc(C2(O)COC2)cc1)N1CCC(c2ccc(C(F)(F)F)cc2)C1 (stereo not drawn) [Example 102, (4-(3-hydroxyoxetan-3-yl)phenyl)(3-(4-(trifluoromethyl)phenyl)pyrrolidin-1-yl)methanone] | 4% | 31% | 25%
11 | CCOC1(c2ccc(C(=O)N3CC4=C(C3)CN(c3ccc(C(F)(F)F)cc3)C4)cc2)COC1 [Example 104, (4-(3-ethoxyoxetan-3-yl)phenyl)(5-(4-(trifluoromethyl)phenyl)-3,4,5,6-tetrahydropyrrolo[3,4-c]pyrrol-2(1H)-yl)methanone] | 1% | 30% | 18%
12 | O=C(c1ccc(C2(O)COC2)cc1)N1CCc2cc(-c3ccc(C(F)(F)F)cc3)ccc21 [Example 107, (4-(3-hydroxyoxetan-3-yl)phenyl)(5-(4-(trifluoromethyl)phenyl)indolin-1-yl)methanone] | 27% | 0% | 0%
13 | COC1(c2ccc(C(=O)N3CCC(c4ccc(C(F)(F)F)c(-n5cnc(C)c5)c4)CC3)cc2)COC1 [Example 108, (4-(3-methoxyoxetan-3-yl)phenyl)(4-(3-(4-methyl-1H-imidazol-1-yl)-4-(trifluoromethyl)phenyl)piperidin-1-yl)methanone] | 9% | 26% | 32%
14 | CC(C)(CCCCCOC1(c2ccc(C(=O)N3CCC(c4ccc(C(F)(F)F)cc4)CC3)cc2)COC1)C(=O)O [Example 109, 2,2-dimethyl-7-((3-(4-(4-(4-(trifluoromethyl)phenyl)piperidine-1-carbonyl)phenyl)oxetan-3-yl)oxy)heptanoic acid] | 5% | 29% | 31%
15 | N#CC1(c2ccc(C(F)(F)F)cc2)CCN(C(=O)c2ccc(C3(O)COC3)cc2)CC1 [Example 116, 1-(4-(3-hydroxyoxetan-3-yl)benzoyl)-4-(4-(trifluoromethyl)phenyl)piperidine-4-carbonitrile] | 7% | 35% | 98%
16 | O=C(c1cccc(C2(O)COC2)c1)N1CCC(c2ccc(C(F)(F)F)c(F)c2)CC1 [Example 121, (4-(3-fluoro-4-(trifluoromethyl)phenyl)piperidin-1-yl)(3-(3-hydroxyoxetan-3-yl)phenyl)methanone] | 0% | 22% | 18%
17 | O=C(c1cccc(C2(O)COC2)c1)N1CCC(c2ccccc2C(F)(F)F)CC1 [Example 122, (3-(3-hydroxyoxetan-3-yl)phenyl)(4-(2-(trifluoromethyl)phenyl)piperidin-1-yl)methanone] | 0% | 16% | 12%
18 | CCOC1(c2ccc(C(=O)N3CCCC(c4ccc(C(F)(F)F)cc4)C3)cc2)COC1 (stereo not drawn) [Example 123, (4-(3-ethoxyoxetan-3-yl)phenyl)(3-(4-(trifluoromethyl)phenyl)piperidin-1-yl)methanone] | 0% | 14% | 30%
19 | Cc1ccc(C2=CC3CN(C(=O)c4ccc(C5(O)COC5)cc4)CC3C2)cc1 (stereo not drawn) [Example 130, (4-(3-hydroxyoxetan-3-yl)phenyl)(5-(p-tolyl)-3,3a,6,6a-tetrahydrocyclopenta[c]pyrrol-2(1H)-yl)methanone] | −19% | 20% | 74%
20 | CSc1ccc(C2=CC3CN(C(=O)c4ccc(C5(O)COC5)cc4)CC3C2)cc1 (stereo not drawn) [Example 131] | −5% | 57% | −1%
21 | O=C(c1ccc(C2(OCC3CC3)COC2)cc1)N1CC2CN(c3ccc(C(F)(F)F)cc3)CC2C1 (stereo not drawn) [Example 133, (4-(3-(cyclopropylmethoxy)oxetan-3-yl)phenyl)(5-(4-(trifluoromethyl)phenyl)hexahydropyrrolo[3,4-c]pyrrol-2(1H)-yl)methanone] | 22% | 28% | 32%
22 | CC(C)COC1(c2ccc(C(=O)N3CC4CN(c5ccc(C(F)(F)F)cc5)CC4C3)cc2)COC1 (stereo not drawn) [Example 135, (4-(3-isobutoxyoxetan-3-yl)phenyl)(5-(4-(trifluoromethyl)phenyl)hexahydropyrrolo[3,4-c]pyrrol-2(1H)-yl)methanone] | 5% | 17% | 47%
23 | CC(C)OC1(c2ccc(C(=O)N3CC4CN(c5ccc(C(F)(F)F)cc5)CC4C3)cc2)COC1 (stereo not drawn) [Example 136, (4-(3-isopropoxyoxetan-3-yl)phenyl)(5-(4-(trifluoromethyl)phenyl)hexahydropyrrolo[3,4-c]pyrrol-2(1H)-yl)methanone] | 11% | 12% | 14%
24 | COCCOC1(c2ccc(C(=O)N3CC4CN(c5ccc(C(F)(F)F)cc5)CC4C3)cc2)COC1 (stereo not drawn) [Example 137, (4-(3-(2-methoxyethoxy)oxetan-3-yl)phenyl)(5-(4-(trifluoromethyl)phenyl)hexahydropyrrolo[3,4-c]pyrrol-2(1H)-yl)methanone] | 0% | 66% | 116%
25 | O=C(c1ccc(C2(O)CCNCC2)cc1)N1CCC(c2ccc(C(F)(F)F)cc2)CC1 [Example 141, (4-(4-hydroxypiperidin-4-yl)phenyl)(4-(4-(trifluoromethyl)phenyl)piperidin-1-yl)methanone] | 0% | 0% | 28%
